Laboratory results taken from patent US20110009351A1, “SCREENING ASSAY TO IDENTIFY CORRECTORS OF PROTEIN TRAFFICKING DEFECTS” (Traffick Therepeutics Inc., priority 2007, published 2011).
“Also recorded” adds a separate entry of the source.

Assays:
Format in all cases: cell-based
F508del CFTR = target: T1, F508del CFTR (Homo sapiens, UniProt P13569, DEL508-508); assay: YFP fluorescence quenching functional assay (iodide influx), HEK293 cells with F508del CFTR and halide sensitive YFP; conditions: 10 μM, 24 h
T1 construct: expressed in transfected cells; host or cells: HEK293 Griptite cells stably expressing F508del CFTR, transiently transfected with halide-sensitive eYFP
Procedure, shortened: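 HEK293 Griptite cells stably expressing F508del CFTR, transiently transfected with halide-sensitive eYFP, treated 24 h with 10 μM compound in triplicate, then stimulated 20 min with 25 μM forskolin, 45 μM IBMX and 50 μM genistein. YFP quench after 50 mM iodide imaged 15 times over 40 s on 150-300 cells/well.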

ΔF508-CFTR [1] = target: T2, ΔF508-CFTR (Homo sapiens, UniProt P13569, DEL508-508); assay: short-circuit current (Isc) across CFBE41o− monolayers in Ussing chambers; set-up: expressed in transfected cells; host or cells: CFBE41o- (ΔF508/ΔF508) transduced with ΔF508-CFTR, TranzVector lentivirus, provided by J. P. Clancy; conditions: 10 μM, 24 h
Method: Short-circuit current (Isc) was measured across monolayers in modified Ussing chambers. 1×10^6 CFBE41o^− cells were seeded onto 12-mm fibronectin-coated Snapwell inserts (Corning Incorporated, Life Sciences, New-York, N.Y.) and the apical medium was removed after 24 h. Transepithelial resistance was monitored using an EVOM epithelial voltohmmeter (World Precision Instruments, Sarasota, Fla.) and cells were used when the transepithelial resistance was 300-400 ohms·cm^2. In some experiments, F508del-CFBE41o^− monolayers were incubated at 29° C. or treated with glafenine at 37° C. for 24 h before being mounted in EasyMount chambers and voltage clamped using a VCCMC6 multichannel current-voltage clamp (Physiologic Instruments, San Diego, Calif.). The apical membrane conductance was functionally isolated by permeabilizing the basolateral membrane with 200 μg/ml nystatin and imposing an apical-to-basolateral Cl^− gradient. For these experiments the basolateral bathing solution contained (in mM) 1.2 NaCl, 115 Na-gluconate, 25 NaHCO3, 1.2 MgCl2, 4 CaCl2, 2.4, KH2PO4, 1.24 K2HPO4, 10 glucose (pH 7.4 with NaOH). The CaCl2 concentration was increased to 4 mM to compensate for the chelation of calcium by gluconate. The apical bathing solution contained (in mM) 115 NaCl, 25 NaHCO3, 1.2 MgCl2, 1.2 CaCl2, 2.4 KH2PO4, 1.24 K2HPO4, 10 mannitol (pH 7.4 with NaOH). […]

ΔF508-CFTR [2] = target: T2, ΔF508-CFTR; set-up: which was then ligated into full length pNUT-CFTR linearized using Hpa1 and Pml1; expressed in transfected cells
Procedure, shortened: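 BHK cells stably expressing 3HA-tagged ΔF508-CFTR (tags in fourth extracellular loop) treated with compound at 20 μM final for 24 h at 37° C. Surface ΔF508-CFTR measured on fixed, non-permeabilised cells by anti-HA/FITC immunofluorescence (488/510 nm), relative to untreated-well background; hits retested in duplicate, intrinsically fluorescent compounds excluded.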

ΔF508-CFTR [3] = target: T2, ΔF508-CFTR; assay: three stage ELISA of CFTR surface expression, BHK cells expressing ΔF508-CFTR; set-up: which was then ligated into full length pNUT-CFTR linearized using Hpa1 and Pml1; expressed in transfected cells; conditions: 10% glycerol or 1 mM sodium 4-phenylbutyrate, 24 hours
Method: (§1) Cells were screened for CFTR surface expression using a three stage ELISA system (Pierce Inc., USA). Briefly, BHK cells expressing 3HA-tagged ΔF508-CFTR were seeded in 96-well plates (Corning, USA) at 30,000 cells per well and incubated for 24 h at 37° C. Each well was treated with a test compound for 24 h, then cells were fixed in 4% paraformaldehyde solution and washed with PBS containing 0.1% bovine serum albumin and 0.05% tween-20. Cells were blocked for 1 h in solution containing 3% normal horse serum in PBS at room temperature. […] After washing four more times, the cells were exposed to 3,3′,5,5′ tetramethylbenzidine (Pierce Inc., USA) for 15 min, sulphuric acid (2M) was added, and absorbance was measured at 450 nm (Power-Wavex Bio-tek Instruments).
(§2) To determine if cell surface expression of CFTR could be quantified in a high-throughput screen using this assay, cells expressing tagged versions of wt or ΔF508-CFTR were seeded in 96-well plates, treated with 10% glycerol and monitored as light absorbance using an enzyme-linked assay system. As expected, untreated ΔF508-CFTR cells had low absorbance since they expressed little CFTR on their cell surface under control conditions (FIG. 3A).

wt CFTR [4] = target: T3, wt CFTR (Homo sapiens, UniProt P13569); assay: immunoblot and densitometry of mature band C, BHK cells expressing wt CFTR; conditions: 10% glycerol
T3 construct: which was then ligated into full length pNUT-CFTR linearized using Hpa1 and Pml1; expressed in transfected cells
Method: (§3) Cell lysates were quantitated by Bradford assay (BioRad) and separated by SDS-PAGE (6% polyacrylamide gels) and analyzed by Western blotting. Western blots were blocked using 5% skimmed milk in PBS, then probed overnight at 4° C. with a primary anti-CFTR antibody at a dilution of 1:1000 monoclonal mouse antibody (clone M3A7, Chemicon). The blots were washed four times in PBS before the addition of the secondary HRP-conjugated anti-mouse antibody, at a dilution of 1:5000 (Amersham) for one hour at room temperature. The blots were washed five times in PBS and probed for chemiluminescence (Pierce). All samples were run with equal protein loading as determined using the Bradford assay (Biorad). Densitometry of the immunoblots was performed using the ImageJ program (National Institutes of Health).

wt CFTR [5] = target: T3, wt CFTR; assay: three stage ELISA of CFTR surface expression, BHK cells expressing wt CFTR; conditions: 10% glycerol, cells expressing wild-type CFTR
Method: as §1, §2

ΔF508-CFTR [6] = target: T2, ΔF508-CFTR; assay: immunoblot and densitometry of mature band C, BHK cells expressing ΔF508-CFTR; set-up: which was then ligated into full length pNUT-CFTR linearized using Hpa1 and Pml1; expressed in transfected cells
Method: as §3
Total protein was quantified in cell lysates using the Bradford assay (BioRad, Hercules, Calif.), separated using SDS-PAGE (6% polyacrylamide gels), and analyzed by Western blotting as described previously (Robert et al., 2007). Western blots were blocked with 5% skimmed milk in PBS and probed overnight at 4° C. with a monoclonal primary anti-CFTR antibody (clone M3A7, Chemicon, Temecula, Calif.) diluted 1:1000. The blots were washed four times in PBS before adding the secondary HRP-conjugated anti-mouse antibody at a dilution of 1:5000 (Amersham, Piscataway, N.J.) for one hour at room temperature, then washed again five times in PBS and visualized using chemiluminescence (Pierce, Rockford, Ill.). The relative intensity of each CFTR glycoform (band B or band C) was estimated by densitometry using the ImageJ software and reported as a percentage of the total CFTR in the same lane (i.e. B+C).

ΔF508-CFTR [7] = target: T2, ΔF508-CFTR; assay: iodide efflux assay in CFBE41o− airway epithelial cells; set-up: expressed in transfected cells; host or cells: CFBE41o- (ΔF508/ΔF508) transduced with ΔF508-CFTR, TranzVector lentivirus, provided by J. P. Clancy; conditions: 10 μM pretreatment
Method: Experiments were performed by hand or with a robotic liquid handling system (BioRobot 8000, Qiagen, USA) using Qiagen 4.1 software. Cells were cultured in 24-well plates until they reached confluence in order to perform parallel experiments and comparison analysis. After treatment (or not) with a test compound, medium in each well was replaced with 1 ml of iodide loading buffer (in mM: 136 NaI, 3 KNO3, 2 Ca(NO3)2, 11 glucose and 20 Hepes pH 7.4) for 1 hour at 37° C. to permit the I′ to reach equilibrium. […] The loss of intracellular I^− was determined by removing the medium and replacing it with fresh efflux buffer every 1 min for up to 11 min. […] The iodide concentration of each aliquot was determined using an iodide-sensitive electrode (Orion Research Inc., Boston, Mass., USA or Ecomet) and converted to iodide content (i.e. the amount of iodide released during the 1 min interval). […]
Iodide effluxes were performed using a robotic liquid handling system (BioRobot 8000, Qiagen, Valencia, Calif.) and Qiagen 4.1 software. […] Efflux was measured by replacing the medium with 300 μl fresh efflux buffer at 1 min intervals for up to 11 min. […] Iodide concentration was measured in each aliquot (300 μl) using an iodide-sensitive electrode (Orion Research Inc., Boston, Mass.). […]

ΔF508-CFTR [8] = target: T2, ΔF508-CFTR; assay: iodide efflux assay in BHK cells expressing ΔF508-CFTR; set-up: which was then ligated into full length pNUT-CFTR linearized using Hpa1 and Pml1; expressed in transfected cells; conditions: 24 hours, BHK
Method: Experiments were performed by hand or with a robotic liquid handling system (BioRobot 8000, Qiagen, USA) using Qiagen 4.1 software. Cells were cultured in 24-well plates until they reached confluence in order to perform parallel experiments and comparison analysis. After treatment (or not) with a test compound, medium in each well was replaced with 1 ml of iodide loading buffer (in mM: 136 NaI, 3 KNO3, 2 Ca(NO3)2, 11 glucose and 20 Hepes pH 7.4) for 1 hour at 37° C. to permit the I′ to reach equilibrium. At the beginning of each experiment, the loading buffer was removed by aspiration and cells were washed eight times with efflux buffer (same as loading buffer except that NaI was replaced with 136 mM NaNO3) to remove extracellular I^− in each well. The loss of intracellular I^− was determined by removing the medium and replacing it with fresh efflux buffer every 1 min for up to 11 min. The first four aliquots were recovered at 1-minute intervals in an empty 24-well plate and used to establish a stable baseline in efflux buffer alone. A stimulation buffer (efflux buffer containing 50 μM genistein+10 μM forskolin) was then added and sampling continued with replacement by stimulation buffer. The iodide concentration of each aliquot was determined using an iodide-sensitive electrode (Orion Research Inc., Boston, Mass., USA or Ecomet) and converted to iodide content (i.e. the amount of iodide released during the 1 min interval). Curves were constructed by plotting concentration versus time. Data are presented as means±SEM.
Iodide effluxes were performed using a robotic liquid handling system (BioRobot 8000, Qiagen, Valencia, Calif.) and Qiagen 4.1 software. Cells were cultured to confluence in 24-well plates. After treatment (or not) with a test compound, the medium in each well was replaced with 1 ml of iodide loading buffer: 136 mM NaI, 3 mM KNO3, 2 mM Ca(NO3)2, 11 mM glucose, 20 mM Hepes, pH 7.4 with NaOH) and incubated for 1 h at 37° C. At the beginning of each experiment, the loading buffer was removed by aspiration and cells were washed eight times with 300 μl efflux buffer (same as loading buffer except that NaI was replaced with 136 mM NaNO3) to remove extracellular I^−. Efflux was measured by replacing the medium with 300 μl fresh efflux buffer at 1 min intervals for up to 11 min. The first four aliquots were used to establish a stable baseline, then buffer containing 10 μM forskolin+50 μM genistein was used to stimulate CFTR activity. Iodide concentration was measured in each aliquot (300 μl) using an iodide-sensitive electrode (Orion Research Inc., Boston, Mass.). Relative iodide efflux rate was calculated using the difference between maximum (peak) iodide concentration during stimulation and minimum iodide concentration before stimulation (in μM/min). […]

T2 sequence (P13569 with tags, fused parts or gaps DEL508-508): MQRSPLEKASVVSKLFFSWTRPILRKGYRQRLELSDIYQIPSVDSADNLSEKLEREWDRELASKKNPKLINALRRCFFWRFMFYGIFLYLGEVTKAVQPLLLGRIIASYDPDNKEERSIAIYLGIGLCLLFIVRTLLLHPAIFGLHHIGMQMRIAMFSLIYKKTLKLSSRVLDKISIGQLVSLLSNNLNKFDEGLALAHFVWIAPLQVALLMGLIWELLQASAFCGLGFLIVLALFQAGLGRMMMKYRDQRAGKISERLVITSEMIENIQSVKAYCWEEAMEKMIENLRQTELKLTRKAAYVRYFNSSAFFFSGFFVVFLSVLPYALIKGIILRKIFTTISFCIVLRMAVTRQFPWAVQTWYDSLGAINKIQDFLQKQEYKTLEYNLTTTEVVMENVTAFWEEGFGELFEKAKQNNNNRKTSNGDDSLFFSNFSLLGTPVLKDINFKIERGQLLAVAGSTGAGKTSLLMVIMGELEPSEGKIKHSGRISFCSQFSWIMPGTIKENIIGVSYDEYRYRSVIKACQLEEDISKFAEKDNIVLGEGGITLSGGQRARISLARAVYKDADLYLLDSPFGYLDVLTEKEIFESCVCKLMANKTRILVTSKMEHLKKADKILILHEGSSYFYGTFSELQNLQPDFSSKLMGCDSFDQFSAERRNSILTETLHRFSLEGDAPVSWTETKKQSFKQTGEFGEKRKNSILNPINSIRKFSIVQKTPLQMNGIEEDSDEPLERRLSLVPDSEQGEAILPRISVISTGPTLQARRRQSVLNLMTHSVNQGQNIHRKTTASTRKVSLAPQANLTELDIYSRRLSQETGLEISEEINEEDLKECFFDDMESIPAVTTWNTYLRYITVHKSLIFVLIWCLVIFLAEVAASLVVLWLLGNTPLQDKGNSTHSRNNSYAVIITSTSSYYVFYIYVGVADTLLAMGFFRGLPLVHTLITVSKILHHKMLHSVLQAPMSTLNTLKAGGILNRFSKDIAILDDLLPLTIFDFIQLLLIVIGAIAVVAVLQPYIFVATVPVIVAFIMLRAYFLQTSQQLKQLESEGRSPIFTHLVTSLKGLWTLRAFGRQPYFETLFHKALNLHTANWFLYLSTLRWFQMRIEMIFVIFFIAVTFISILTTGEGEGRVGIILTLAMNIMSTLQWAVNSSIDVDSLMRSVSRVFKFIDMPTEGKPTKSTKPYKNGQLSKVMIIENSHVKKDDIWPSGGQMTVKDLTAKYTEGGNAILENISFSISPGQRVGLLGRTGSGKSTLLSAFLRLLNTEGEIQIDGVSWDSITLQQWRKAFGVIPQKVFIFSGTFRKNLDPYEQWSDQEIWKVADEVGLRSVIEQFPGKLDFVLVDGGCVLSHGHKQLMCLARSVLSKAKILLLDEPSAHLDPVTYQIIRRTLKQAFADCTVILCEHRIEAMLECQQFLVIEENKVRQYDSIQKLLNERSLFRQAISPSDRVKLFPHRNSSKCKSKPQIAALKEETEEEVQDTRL
T3 sequence (P13569 whole entry): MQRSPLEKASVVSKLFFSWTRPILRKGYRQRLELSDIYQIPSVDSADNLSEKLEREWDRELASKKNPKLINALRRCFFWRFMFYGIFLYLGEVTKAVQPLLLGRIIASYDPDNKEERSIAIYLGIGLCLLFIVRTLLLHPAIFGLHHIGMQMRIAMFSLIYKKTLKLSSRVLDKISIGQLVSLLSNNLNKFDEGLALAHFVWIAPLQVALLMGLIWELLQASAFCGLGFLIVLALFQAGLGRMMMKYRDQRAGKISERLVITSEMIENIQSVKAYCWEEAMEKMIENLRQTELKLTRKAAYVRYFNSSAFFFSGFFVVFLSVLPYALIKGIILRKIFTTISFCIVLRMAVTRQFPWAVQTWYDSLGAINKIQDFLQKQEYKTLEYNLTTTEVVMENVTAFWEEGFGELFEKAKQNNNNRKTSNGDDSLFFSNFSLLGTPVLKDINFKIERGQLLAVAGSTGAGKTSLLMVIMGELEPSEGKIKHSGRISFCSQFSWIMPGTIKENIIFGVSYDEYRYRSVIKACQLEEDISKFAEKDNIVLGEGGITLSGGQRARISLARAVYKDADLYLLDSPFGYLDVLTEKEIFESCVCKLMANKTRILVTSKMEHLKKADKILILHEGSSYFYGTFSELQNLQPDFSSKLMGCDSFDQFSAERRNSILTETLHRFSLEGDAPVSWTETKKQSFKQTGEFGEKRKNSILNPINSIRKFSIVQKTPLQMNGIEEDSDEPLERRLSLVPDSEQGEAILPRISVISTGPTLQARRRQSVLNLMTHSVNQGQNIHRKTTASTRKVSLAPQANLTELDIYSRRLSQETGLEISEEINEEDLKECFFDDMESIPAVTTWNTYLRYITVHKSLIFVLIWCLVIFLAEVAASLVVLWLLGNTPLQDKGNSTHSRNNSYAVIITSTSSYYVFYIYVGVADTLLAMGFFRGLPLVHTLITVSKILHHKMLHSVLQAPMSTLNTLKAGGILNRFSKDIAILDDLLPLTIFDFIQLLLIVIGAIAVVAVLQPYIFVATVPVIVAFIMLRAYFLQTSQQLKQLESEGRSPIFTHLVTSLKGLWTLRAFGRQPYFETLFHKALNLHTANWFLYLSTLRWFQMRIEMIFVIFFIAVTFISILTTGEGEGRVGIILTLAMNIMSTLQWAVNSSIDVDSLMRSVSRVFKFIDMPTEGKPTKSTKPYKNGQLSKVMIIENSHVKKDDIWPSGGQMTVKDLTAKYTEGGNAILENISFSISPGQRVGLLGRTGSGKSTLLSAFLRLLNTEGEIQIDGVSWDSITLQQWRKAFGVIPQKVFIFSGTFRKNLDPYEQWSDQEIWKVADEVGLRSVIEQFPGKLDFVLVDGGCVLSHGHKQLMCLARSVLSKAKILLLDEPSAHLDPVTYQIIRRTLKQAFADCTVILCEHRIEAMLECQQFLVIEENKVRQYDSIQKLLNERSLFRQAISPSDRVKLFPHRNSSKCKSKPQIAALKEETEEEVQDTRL
T1 sequence (P13569 with tags, fused parts or gaps DEL508-508): as the sequence (P13569 with tags, fused parts or gaps DEL508-508) above

For `COc1ccc(S(=O)(=O)N2CCN(C(C)c3nc(OC4CCCCC4)c4ccccc4n3)CC2)cc1` (stereo not shown) [VRT325], the “functional correction in YFP quenching assay” value (F508del CFTR) was “somewhat larger YFP-quenching response”, the “forskolin+genistein-stimulated Isc” value (ΔF508-CFTR [1]) was “not different from vehicle controls” and the “ΔF508-CFTR surface expression increase, normalized to BHK cells expressing wild-type CFTR” value (ΔF508-CFTR [2]; 10 μM, 24 h, compared with vehicle alone) was 36%.

With `OCC(O)CO` [glycerol] the “plasma membrane signal (absorbance), words” value (ΔF508-CFTR [3]) was “increased the plasma membrane signal”, the “increase of band C by densitometry” value (wt CFTR [4]) was 1.5 fold and the “increase of plasma membrane signal” value (wt CFTR [5]) was 2.5 fold. For the same molecule, the “increase of band C by densitometry” value (ΔF508-CFTR [6]; 10% glycerol, ΔF508-CFTR) was 37 fold and the “fluorescence increase in comparison with the untreated cells” value (ΔF508-CFTR [2]; 10% glycerol, ΔF508-CFTR cells) was 2.7 fold.

With `CCCc1nn(C)c2c(=O)[nH]c(-c3cc(S(=O)(=O)N4CCN(C)CC4)ccc3OCC)nc12` [sildenafil] the “iodide efflux” value (ΔF508-CFTR [7]) was “negative result”, the “cAMP-stimulated iodide efflux” value (ΔF508-CFTR [8]; 10 μM pretreatment) was “did not restore a strong cAMP-stimulated iodide efflux responses; also recorded: did not produce significant iodide efflux” and the “cAMP-stimulated iodide efflux” value (ΔF508-CFTR [8]; 1 mM) was “strong cAMP-stimulated iodide efflux was detected; also recorded: function was detected”. The “increase in the intensity of the mature band C” value (ΔF508-CFTR [6]; after sildenafil treatment) was 30% and the “signal in the trafficking assay” value (ΔF508-CFTR [2]; Microsource Discovery library, medium and weak hits, 20 μM, 24 hours) was “consistently elevated signal”.
